Results from patent US5986131A, “RXR selective ligands” (Hoffmann-La Roche Inc., priority 1997, dated 1999).
pEC50, pIC50: −log10 of the molar value.

Key:
RAR γ [1] = target: T1, RAR γ (Homo sapiens, UniProt P13631); test: RARγ activation (transactivation); type: cell-based; settings: Table 6; @ 1000 nM; read-out: RAR Activation % max (γ)
T1 sequence (P13631 1-454): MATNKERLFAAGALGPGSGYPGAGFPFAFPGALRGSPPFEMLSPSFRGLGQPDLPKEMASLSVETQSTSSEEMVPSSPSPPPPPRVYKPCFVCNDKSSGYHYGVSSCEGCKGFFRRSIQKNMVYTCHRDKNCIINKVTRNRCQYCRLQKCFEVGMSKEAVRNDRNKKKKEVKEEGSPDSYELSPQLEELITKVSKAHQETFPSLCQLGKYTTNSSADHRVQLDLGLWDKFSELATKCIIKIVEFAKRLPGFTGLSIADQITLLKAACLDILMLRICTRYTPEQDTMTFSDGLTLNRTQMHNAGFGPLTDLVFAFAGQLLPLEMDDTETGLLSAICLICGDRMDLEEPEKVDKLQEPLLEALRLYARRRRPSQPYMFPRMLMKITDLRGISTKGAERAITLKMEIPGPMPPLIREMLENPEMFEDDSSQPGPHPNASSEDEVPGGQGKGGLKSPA
Source text: (§1) Methods for determining the binding and transactivation properties of retinoids with regard to the RAR receptors and RXR receptors are known in the art, e.g., Levin et al., Nature, 355:359-361 (Jan. 23, 1992); Allenby et al., Proc. Natl. Acad. Sci. USA, 90:30-34 (January, 1993); Allenby et al., J. Biol. Chem., 269:16689-16695 (Jun. 17, 1994). Methods essentially as described in those publications were used to determine the binding and transactivation properties of retinoids reported in the Examples herein.
(§2) Retinoid receptor binding and transactivation assays were performed on Compound B and Example 6 as described above.

RARα [2] = target: T2, RARα (Homo sapiens, UniProt P10276); test: RARα activation (transactivation); type: cell-based; settings: Table 6
T2 sequence (P10276 1-462): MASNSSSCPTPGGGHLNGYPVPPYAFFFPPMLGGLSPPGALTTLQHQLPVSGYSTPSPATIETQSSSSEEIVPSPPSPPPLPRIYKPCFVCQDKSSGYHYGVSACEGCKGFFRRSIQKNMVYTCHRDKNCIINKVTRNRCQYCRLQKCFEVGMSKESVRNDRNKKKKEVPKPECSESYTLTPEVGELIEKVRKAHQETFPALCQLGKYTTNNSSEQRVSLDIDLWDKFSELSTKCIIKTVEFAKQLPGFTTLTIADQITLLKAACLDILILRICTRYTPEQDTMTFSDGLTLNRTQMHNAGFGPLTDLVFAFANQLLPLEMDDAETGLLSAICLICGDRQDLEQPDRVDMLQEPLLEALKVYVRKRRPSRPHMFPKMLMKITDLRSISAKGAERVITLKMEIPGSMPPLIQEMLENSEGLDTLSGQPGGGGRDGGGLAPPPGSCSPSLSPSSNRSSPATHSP
Source text: (§3) Methods essentially as described in those publications were used to determine the binding and transactivation properties of retinoids reported in the Examples herein.

RAR β [3] = target: T3, RAR β (Homo sapiens, UniProt P10826); test: RARβ activation (transactivation); type: cell-based; settings: Table 6
T3 sequence (P10826 1-455): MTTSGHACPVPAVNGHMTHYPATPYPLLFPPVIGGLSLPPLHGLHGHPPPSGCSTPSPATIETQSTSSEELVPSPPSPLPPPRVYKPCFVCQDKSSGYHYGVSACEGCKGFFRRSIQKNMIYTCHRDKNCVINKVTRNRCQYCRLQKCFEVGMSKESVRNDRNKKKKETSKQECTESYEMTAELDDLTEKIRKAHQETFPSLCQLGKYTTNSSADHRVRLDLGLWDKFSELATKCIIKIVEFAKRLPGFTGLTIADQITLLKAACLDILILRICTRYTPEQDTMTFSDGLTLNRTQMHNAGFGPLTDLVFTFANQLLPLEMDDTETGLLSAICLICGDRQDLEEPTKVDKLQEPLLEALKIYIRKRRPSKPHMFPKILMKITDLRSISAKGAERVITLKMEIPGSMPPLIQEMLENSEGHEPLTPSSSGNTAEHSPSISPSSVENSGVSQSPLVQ
Source text: as §1, §2

T47-D = T47-D breast carcinoma cell growth inhibition (MTT), combination; type: cell-based, human; settings: Compound B plus constant concentration of Example 6; FIG. 7
Procedure: The compound of Example 6 was tested for its ability to inhibit a human breast carcinoma cell line in combination with a retinoid having RARα activity, all-E-3,7-dimethyl-9-[(2-methoxy-4-methyl-6-octyloxy)phenyl]-2,4,6,8-nonatetraenoic acid (Compound B), as shown: [drawing 7]
Breast carcinoma cell line, T47-D, obtained from the ATCC [Accession No. HTB133] was grown in RPMI 1640 media supplemented with 10% FBS, 10 μg/ml insulin and 13 ng/ml gentamicin, and incubated at 37° C., 4.5% CO2 and 95.5% humidified air. The cells were harvested upon reaching 70-80% confluency and pelleted. The cells were resuspended in the media and seeded (150 μl/well) into 96-well plates (Corning) at a density allowing linear growth over a seven day assay period (i.e., T47-D seeded at 4×10^3 cells/well). […]
Liquid was removed by aspiration, 50 μl 95% ethanol was added, and the plates were shaken (Mini-Orbital Shaker, Bellco) for 15 minutes to solubilize the formazan product. The optical density of each well was measured using an automatic plate reader (Microplate EL320 Reader, Bio-Tek Instruments) with a test wavelength of 570 nm and a reference wavelength of 660 nm. The amount of cell growth inhibition caused by various concentrations of Compound B in combination with a constant concentration of the compound of Example 6 was determined in accordance with the following equation: [formula]

RAR β [4] = target: T3, RAR β; test: RARβ binding; settings: Table 6
Source text: as §1, §2

RARα [5] = target: T2, RARα; test: RARα binding; settings: Table 6; read-out: RAR Binding IC50 (α)
Source text: as §3

RAR γ [6] = target: T1, RAR γ; test: RARγ binding; settings: Table 6
Source text: as §1, §2

RXRα = target: T4, RXRα (Homo sapiens, UniProt P19793); test: RXRα activation (transactivation); type: cell-based; settings: Table 6; @ 1000 nM; read-out: RXR Activation % max (α)
T4 sequence (P19793 1-462): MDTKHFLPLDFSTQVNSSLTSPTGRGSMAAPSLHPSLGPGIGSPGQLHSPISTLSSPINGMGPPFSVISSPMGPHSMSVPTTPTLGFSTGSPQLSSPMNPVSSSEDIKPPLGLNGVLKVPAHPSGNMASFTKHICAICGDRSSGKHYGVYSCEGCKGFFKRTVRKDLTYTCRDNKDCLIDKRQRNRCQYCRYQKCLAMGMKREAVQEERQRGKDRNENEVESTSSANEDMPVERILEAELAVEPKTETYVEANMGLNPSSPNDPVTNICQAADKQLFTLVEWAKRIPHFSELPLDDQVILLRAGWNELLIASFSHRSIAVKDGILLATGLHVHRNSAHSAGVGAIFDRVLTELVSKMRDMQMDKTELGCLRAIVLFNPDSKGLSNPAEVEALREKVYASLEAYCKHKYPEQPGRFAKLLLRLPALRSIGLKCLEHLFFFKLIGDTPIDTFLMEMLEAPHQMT
Source text: as §3

Emax at 1 µM (RAR γ [1])	Emax at 1 µM (RARα [2]; @ 1000 nM, read-out: RAR Activation % max (α))	Emax at 1 µM (RAR β [3]; @ 1000 nM, read-out: RAR Activation % max (β))	pIC50 (RAR β [4])	pIC50 (RARα [5])	pIC50 (RAR γ [6])	pEC50 (RARα [2]; read-out: RAR Activation EC50 (α))	pEC50 (RAR β [3])	Emax at 1 µM (RXRα)	SMILES	antiproliferative activity in breast cancer cell line in combination (potentiation of Compound B) (T47-D)
9%	4%	8%							CC1=C(/C=C/C2=C(/C=C/C(C)=C/C(=O)O)CCCCC2)C(C)(C)CCC1 [Example 6, (2E,4E)-3-Methyl-5-(2-((E)-2(2,6,6-trimethyl-1-cyclohexen-1-yl)ethenyl)-1-cyclohepten-1-yl)-2,4-pentadienoic acid]	Enhanced antiproliferative activity
48%			6.30	6.62	< 5.00	7.96	8.28	0%	CCCCCCCCOc1cc(C)cc(OC)c1/C=C/C(C)=C/C=C/C(C)=C/C(=O)O [Compound B, all-E-3,7-dimethyl-9-[(2-methoxy-4-methyl-6-octyloxy)phenyl]-2,4,6,8-nonatetraenoic acid]	
